Source: publication PMC10474154, “Pro-arrhythmic effect of escitalopram and citalopram at serum concentrations commonly observed in older patients – a study based on a cohort of 19,742 patients” (eBioMedicine, 2023)
“Also recorded” adds a separate entry of the source. Where two headings read alike, the source gives them in different places. One block for each molecule: values may come before it.

Legend:
[1] = older patients (mean age 76), Canadian study; cited from earlier work
[2] = cited from earlier work
[3] = Therapeutic drug monitoring (TDM) serum concentrations in patients; settings: for Serum concentration, 10% percentile / Serum concentration, 25% percentile / Serum concentration, 50% percentile / Serum concentration, 75% percentile / Serum concentration, 90% percentile / Serum concentration, maximum / Serum concentration, minimum: trough; for Serum concentration, mean: trough (10-28 h after dose)
Description: (§1) Information regarding age, sex, daily dose and time between last dose and blood sampling was also collected from the database. For patients with multiple TDM measurements, only the last measurement was included. Included patients were divided into four subgroups based on age: (a) < 18, (b) 18–64, (c) 65–80, and (d) > 80 years.
(§2) Measured serum concentrations represent total concentrations, i.e. the sum of bound and unbound drug.
(§3) All patients were included unless they met the exclusion criteria. Exclusion criteria were: (a) serum concentration of citalopram, escitalopram and/or demethylcitalopram outside the limits of quantification (LOQ), (b) blood sampling not performed at trough levels, outside the time interval of 10–28 h after last dose intake, (c) prescribed dose of citalopram or escitalopram less/more than 2.5–80 mg or 2.5–60 mg, respectively, and (d) detection of interacting drugs in the citalopram/escitalopram serum sample. In detail, we screened the samples for CYP2C19 inducers carbamazepine, phenobarbital and phenytoin and the CYP2C19 or –2D6 inhibitors bupropion, fluoxetine, fluvoxamine, paroxetine or levomepromazine.
(§4) Differences in absolute serum concentrations of citalopram, escitalopram and metabolites as well as differences in time between last blood sampling and daily dose was investigated across the age subgroups using Kruskal Wallis test followed by Dunn's test. P-values were Bonferroni corrected by multiplying the P-value by the number of statistical analyses that were performed.

[4] = parameters: method as in earlier work; settings: cited from earlier work
[5] = human, in vivo
Description: as §1, §2, §3, §4

[6] = test system: human induced pluripotent stem cell-derived cardiomyocytes (hiPSC-CM); assay: Action potential recordings in hiPSC-CM with voltage sensitive dye (FluoVolt, CellOPTIQ); assay type: cell-based; settings: hiPSC-CM
Description: Cryopreserved human induced pluripotent stem cell-derived cardiomyocytes (hiPSC-CM): CDI iCell cardiomycytes^2 01434 CardioTox Kit (Catalog #: R1222, FujiFilm CDI, Madison, WI) were kept in liquid nitrogen until culture according to instructions by the manufacturer. […] All studies were conducted at Clyde Biosciences (Glasgow, Scotland). Cells were cultured in 96-well glass-bottomed plates (MatTek, Ashland, Massachusetts) coated with fibronectin ([…] in PBS supplemented with Ca2+ and Mg2+) (Sigma, St. Louis, Missouri) in a humidified incubator at 37 °C for 3 h. The cell density was 50,000 cells/cm2 (25,000 cells/well). The subsequent maintenance protocols followed manufacturer's instructions using their maintenance medial (FujiFilm CDI Cardiomyocytes Maintenance Media). Experiments were performed between days 4–8. Prior to beginning an experiment, cells were washed in serum-free media (SF media), specifically DMEM (Gibco, ThermoFisher Scientific, UK) supplemented with 10 mM galactose and 10 mM sodium pyruvate.
hiPSC-CM were loaded with 5 μM FluoVolt (ThermoFisher) and the multiwell plate was placed in the CellOPTIQ platform (at Clyde Biosciences Ltd, Glasgow, Scotland). The FluoVolt fluorescence signal was recorded using a 40 × (NA 0.6) objective lens. Excitation wavelength was 480 ± 10 nm, and emitted light was collected by a photomultiplier (PMT) at 510–560 nm. Drugs were supplied by Santa Cruz Biotechnology (Germany) and Toronto Research Chemicals (Canada). Their identity and concentration were blinded from the laboratory personnel. […] 30 min after exposure to the tested drug or vehicle a 20 s recording was taken. Offline analysis was performed using proprietary software (CellOPTIQ®). The following (averaged) parameters were obtained from the AP recordings of 4 independent replicates: cycle length (CL, […]); rise time (Trise, ms) between 10 and 90% of the AP amplitude, and AP durations (APD, ms) from 10% to 90% repolarization at 10% intervals. In this study rate-correction was based on previous studies.[14]
Drugs were tested at 3 concentrations with matched vehicle controls for each concentration. The chosen escitalopram (S-citalopram) concentration was 60 nM. Assuming no protein binding in the in vitro model, this corresponds to a total serum concentration of 136 nM, as escitalopram protein binding is reported at 55–56% (most commonly 56%, which is used in the present study).[15], [16], [17] […] This could vary with age and clinical conditions.[20] […] In a large therapeutic drug monitoring (TDM) study 60 nM was the average total concentration in patients with normal escitalopram metabolism through CYP2C19, and 136 nM was below the average total concentration in poor metabolizers.[7] After administration of racemic citalopram, R-citalopram is reported to be 3 times higher than S-citalopram in a publication by Ji et al.[22] The typical concentration of R-citalopram as well as the S-/R-demethylcitalopram and S-/R-didemethylcitalopram metabolites, were calculated according to ratios from their paper.[22]
Shapiro Wilk tests were used to determine whether the data in this study were normally distributed based on a least-squares fit to a normal function, while Brown–Forsythe test was used to verify homogeneity of variance (Origin version 9, OriginLab Corp., Northampton, Massachusetts). […] Statistical tests were made using a paired t-tests for differences between absolute values, with P-values adjusted for multiple comparisons using the Benjamini-Hochberg procedure (one-way ANOVA). The relationship between AP duration at 90% of repolarization (APD90) and CL or diastolic interval was fit to single or double exponential functions (Origin version 9).

- Serum concentration, 10% percentile ([3]; citalopram users): 48 nmol/L
- Serum concentration, 25% percentile ([3]; citalopram users): 84 nmol/L
- Serum concentration, 50% percentile ([3]; citalopram users): 133 nmol/L
- Serum concentration, 75% percentile ([3]; citalopram users): 211 nmol/L
- Serum concentration, 90% percentile ([3]; citalopram users): 314 nmol/L
- Serum concentration, maximum ([3]; citalopram users): 733 nmol/L
- Serum concentration, minimum ([3]; citalopram users): 7 nmol/L
- Serum concentration, mean ([3]; citalopram users): 163 nmol/L
SMILES: CN(C)CCCC1(c2ccc(F)cc2)OCc2cc(C#N)ccc21 (centres unmarked) [Citalopram, citalopram]
- Relative risk for hospitalization due to ventricular arrhythmia [1]: 1.53
- Time of maximum concentration after intake (Tmax) [2]: 3 to 4 h

- Serum concentration, 10% percentile ([3]; citalopram users): 23 nmol/L
- Serum concentration, 25% percentile ([3]; citalopram users): 35 nmol/L
- Serum concentration, 50% percentile ([3]; citalopram users): 55 nmol/L
- Serum concentration, 75% percentile ([3]; citalopram users): 87 nmol/L
- Serum concentration, 90% percentile ([3]; citalopram users): 130 nmol/L
- Serum concentration, maximum ([3]; citalopram users): 395 nmol/L
- Serum concentration, minimum ([3]; citalopram users): 5 nmol/L
- Serum concentration, mean ([3]; citalopram users): 68 nmol/L
- Serum concentration, 10% percentile ([3]; escitalopram users): 13 nmol/L
- Serum concentration, 25% percentile ([3]; escitalopram users): 18 nmol/L
- Serum concentration, 50% percentile ([3]; escitalopram users): 26 nmol/L
- Serum concentration, 75% percentile ([3]; escitalopram users): 37 nmol/L
- Serum concentration, 90% percentile ([3]; escitalopram users): 51 nmol/L
- Serum concentration, maximum ([3]; escitalopram users): 329 nmol/L
- Serum concentration, minimum ([3]; escitalopram users): 5 nmol/L
- Serum concentration, mean ([3]; escitalopram users): 30 nmol/L
SMILES: CNCCCC1(c2ccc(F)cc2)OCc2cc(C#N)ccc21 (centres unmarked) [Demethylcitalopram, demethylcitalopram]

SMILES: N#Cc1ccc2c(c1)COC2(CCCN)c1ccc(F)cc1 (centres unmarked) [Didemethylcitalopram, didemethylcitalopram]
- Serum concentrations associated with sudden death in dogs, relative to humans [4]: 39–155 times
- Serum concentration, 10% percentile [5]: 0.82 nmol/L
- Serum concentration, 25% percentile [5]: 1.72 nmol/L
- Serum concentration, 50% percentile [5]: 3.47 nmol/L
- Serum concentration, 75% percentile [5]: 5.90 nmol/L
- Serum concentration, 90% percentile [5]: 9.65 nmol/L
- Serum concentration, maximum [5]: 35.33 nmol/L
- Serum concentration, minimum [5]: 0.34 nmol/L

- Triangulation effect ([6]; 10 times typical concentrations): substantial increase
- % Change of cycle length from baseline ([6]; 10x clinical concentration): -1.96±5.39%
- % Change of cycle length from baseline ([6]; 100x clinical concentration): Quiescent
- Concentration that increased triangulation (APD90-APD30) of the action potential ([6]; 30 min exposure): 180 nM
- Concentration that reduced medium repolarisation (APD50) ([6]; 30 min exposure): 1800 nM
- Effect on cycle length ([6]; all tested concentrations): not affected
- % Change of cycle length from baseline ([6]; clinical concentration): 0.99±7.43%
- Electrical activity of the cells ([6]; highest concentrations (100 times typical)): electrically quiescent
- Early and medium repolarisation (APD30 and APD50) ([6]; intermediate concentrations): shortening
- Triangulation (APD90-APD30) effect ([6]; low concentrations): significantly increased
- Late repolarisation ([6]; lowest tested concentrations): prolonged
SMILES: CN(C)CCC[C@]1(c2ccc(F)cc2)OCc2cc(C#N)ccc21 [R-citalopram]
- Depolarisation (phase 0) measured by TRise ([6]; increasing concentrations): No changes; also recorded: No significant increase
- Concentration relative to S-citalopram after administration of racemic citalopram [2]: 3 times
